# Assay results from US11046670B2, “Piperazinyl norbenzomorphan compounds and methods for using the same” (priority 2015, dated 2021).
# pKi: −log10 of the molar value. Where two headings read alike, the source gives them in different places.
# Key:
# sigma 2 receptor [1] = target: T1, sigma 2 receptor (Rattus norvegicus (Rat), UniProt Q5U3Y7); settings: for pKi: read-out: σ2 Ki; for Ki(σ1)/Ki(σ2): selectivity σ2 over σ1
# Description: (§1) Sigma-2 receptor ligands and their binding assays. […] The compounds were dissolved in 100% DMSO prior to the receptor binding assays, which were performed by the Psychoactive Drug Screening Program (PDSP) at Chapel Hill, N.C. […] Briefly, Sig2Rs were sourced from rat liver homogenates (PC12 cells). The Sig2R ligand binding affinity was determined through competition binding assays using the radioligand [^3H]-ditolylguanidine in the presence of (+)-pentazocine to block Sig1R binding sites. The radioactivity in the presence of the test compound is calculated with the following equation and expressed as a percent inhibition: % inhibition=(sample CPM non-specific CPM)/(Total CPM non-specific CPM)×100 where
# (§2) CPM stands for counts per minute. To determine secondary binding data, CPM/well are pooled and fitted to a three parameter logistic function for competition binding in Prism v 5.0 to determine IC50 values, which are converted to K, according to the Cheng-Prusoff equation.
# (§3) Receptor binding assays were performed by the Psychoactive Drug Screening Program (PDSP) at Chapel Hill, N.C. […] Briefly, Sig1Rs and Sig2Rs were sourced from homogenates of Guinea pig brains and rat livers, respectively. Assessment of Sig1R binding affinity was determined via competition binding assays with the radioligand [3H]-(+)-pentazocine. Sig2R binding affinity was determined through competition binding assays using the radioligand [3H]-ditolylguanidine in the presence of (+)-pentazocine to block Sig1R binding sites. […] The radioactivity in the presence of the test compound is calculated with the following equation and expressed as a percent inhibition: % inhibition=(sample CPM non-specific CPM)/Total CPM−non-specific CPM)×100. The normalization process is carried out in Prism or Excel. To determine secondary binding results, CPM/well are pooled and fitted to a three parameter logistic function for competition binding in Prism v 5.0 to determine IC50 values, which are converted to Ki according to the Cheng-Prusoff equation.
# sigma 2 receptor [2] = target: T1, sigma 2 receptor; experiment: biochemical; settings: for inhibition at 10 µM: read-out: σ2 inhibition of radioligand binding
# Description: as §1, §2, §3
# sigma 1 receptor [3] = target: T2, sigma 1 receptor (Cavia porcellus (Guinea pig), UniProt Q60492); experiment: biochemical; settings: for Ki: σ1 Ki (nM); for inhibition at 10 µM: read-out: σ1 inhibition of radioligand binding; for pKi: σ1 pKi ± SEM
# T2 sequence (Q60492 whole entry): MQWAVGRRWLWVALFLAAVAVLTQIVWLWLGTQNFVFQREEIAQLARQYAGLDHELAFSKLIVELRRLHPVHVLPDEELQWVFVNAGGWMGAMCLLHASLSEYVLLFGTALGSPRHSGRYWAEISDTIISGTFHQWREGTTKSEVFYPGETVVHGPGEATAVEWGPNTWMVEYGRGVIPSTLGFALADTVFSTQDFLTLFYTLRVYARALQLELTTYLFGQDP
# Description: as §3
# sigma 1 receptor [4] = target: T2, sigma 1 receptor; settings: for pKi: read-out: σ1 Ki
# Description: as §3
# [5] = system: Wild-type mice (C57BL/6) subjected to Blast (brain injury); experiment: Traumatic Brain Injury, Morris Water Maze after blast; format: in vivo; settings: seven days of daily treatment beginning the day after injury, compared to Veh
# From the text: FIG. 10 Traumatic Brain Injury treatment; Morris Water Maze (spatial and long term memory) after blast; Wild-type mice (C57BL/6) were subjected to either a Blast (brain injury) or Sham blast (no brain injury).
# [6] = system: Wild-type mice (C57BL/6) subjected to Blast (brain injury); experiment: Traumatic Brain Injury, Barnes Maze after blast; format: in vivo; settings: seven days of daily treatment beginning the day after injury, compared to Veh
# From the text: FIG. 9 Traumatic Brain Injury treatment; Barnes Maze (spatial and long term memory) after blast; Wild-type mice (C57BL/6) were subjected to either a Blast (brain injury) or Sham blast (no brain injury).
# [7] = system: Murine hippocampal neuron slices; experiment: Synaptic long term depression in hippocampal neuron slices
# From the text: FIG. 13 Effect of SAS-0132 on Synaptic Long Term Depression (inhibition); effect of SAS-0132 on dihydroxyphenylglycine (DHPG) mediated increase in long term depression (LTD).
# neuroblastoma cells [8] = experiment: MTT Assay in Neuroblastoma Cells
# Description: FIG. 15 MTT Assay in Neuroblastoma Cells; Sigma 2 receptor binding ligands were evaluated for effects in neuroblastoma cells.
# FIG. 16 MTT Assay in Neuroblastoma Cells; Sigma 2 receptor binding ligands were evaluated for effects in neuroblastoma cells.
# neuroblastoma cells [9] = experiment: Calcium ion levels in neuroblastoma cells; format: cell-based
# [10] = system: proinflammatory cytokines (IL-1β, TNFα, CD14); experiment: Brain levels of proinflammatory cytokines in transgenic mice; format: in vivo; settings: Thy1-APPLond/Swe+ mice, 60 days of treatment (30 mg/kg)
# σ2R = σ2R (Homo sapiens (Human), UniProt Q5BJF2); settings: cited from earlier work
# σ2R, sequence (Q5BJF2 whole entry): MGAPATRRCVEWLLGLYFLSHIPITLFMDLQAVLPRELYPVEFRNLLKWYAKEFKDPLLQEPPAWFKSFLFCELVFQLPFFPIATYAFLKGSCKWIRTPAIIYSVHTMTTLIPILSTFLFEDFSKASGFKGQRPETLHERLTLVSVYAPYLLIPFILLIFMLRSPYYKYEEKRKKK
# T1 sequence (Q5U3Y7 whole entry): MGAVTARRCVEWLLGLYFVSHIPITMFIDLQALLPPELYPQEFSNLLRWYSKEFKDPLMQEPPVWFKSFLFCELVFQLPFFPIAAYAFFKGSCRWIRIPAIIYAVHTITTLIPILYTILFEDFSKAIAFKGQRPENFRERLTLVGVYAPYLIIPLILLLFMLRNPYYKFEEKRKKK
Compound,pKi (sigma 2 receptor [1]),σ1 pKi ± SEM (sigma 1 receptor [4]),pKi (sigma 1 receptor [4]),σ2 pKi ± SEM (sigma 2 receptor [1]),Ki(σ1)/Ki(σ2) (sigma 2 receptor [1]),other results
CCCOC(=O)CCN1CCN(c2ccc3c(c2)[C@H]2C[C@H]3CCN2C(=O)OCc2ccccc2)CC1,7.24,–,–,–,–,–
"CN1CCN(c2ccc3c(c2)C2CC3CCN2C(=O)C2CCCCC2)CC1 (racemic) [(±)-TH-1-106, (±)-Cyclohexyl(8-(4-methylpiperazin-1-yl)-1,3,4,5-tetrahydro-2H-1,5-methanobenzo[c]azepin-2-yl)methanone]",–,–,–,–,–,pKi (sigma 2 receptor [2]): 6.84; Ki (sigma 1 receptor [3]): 1420 nM
O=C(OCc1ccccc1)N1CC[C@@H]2C[C@@H]1c1cc(Cl)ccc12 [Compound 12],–,–,–,–,–,inhibition at 10 µM (sigma 2 receptor [2]): < 50%; inhibition at 10 µM (sigma 1 receptor [3]): < 50%
O=C(OCc1ccccc1)N1CC[C@@H]2C[C@@H]1c1cc(N3CCOCC3)ccc12 [Compound 16],–,–,–,–,–,inhibition at 10 µM (sigma 2 receptor [2]): < 50%; sigma receptor binding (in words) (sigma 2 receptor [1]): did not bind; inhibition at 10 µM (sigma 1 receptor [3]): < 50%
c1ccc(CN2CC[C@@H]3C[C@@H]2c2cc(N4CCCCC4)ccc23)cc1 [Compound 19],6.50,5.61 ± 0.06,5.61,6.5 ± 0.1,8,preference / selectivity for σ2R relative to σ1R (sigma 2 receptor [1]): about 8 fold
C=CCCN1CCN(c2ccc3c(c2)[C@H]2C[C@H]3CCN2C(=O)OCc2ccccc2)CC1 [Compound 29],7.80,6.76 ± 0.05,6.76,7.79 ± 0.05,11,–
CC(C)=CCN1CCN(c2ccc3c(c2)[C@H]2C[C@H]3CCN2C(=O)OCc2ccccc2)CC1 [Compound 30],7.64,7.21 ± 0.05,7.21,7.64 ± 0.07,3,–
CN1CCN(c2ccc3c(c2)[C@H]2C[C@H]3CCN2)CC1 [Compound 33],–,–,–,–,–,inhibition at 10 µM (sigma 2 receptor [2]): < 50%
CN1CCN(c2ccc3c(c2)[C@H]2C[C@H]3CCN2S(=O)(=O)c2ccccc2)CC1 [Compound 35],6.12,–,–,6.12 ± 0.07,–,inhibition at 10 µM (sigma 1 receptor [3]): < 50%
CN1CCN(c2ccc3c(c2)[C@H]2C[C@H]3CCN2C(=O)CCc2ccccc2)CC1 [Compound 36],6.45,6.53 ± 0.08,6.53,6.45 ± 0.06,1,–
CCCN1CCN(c2ccc3c(c2)C2CC3CCN2C(=O)OCc2ccccc2)CC1 (centres unmarked) [DKR-1516],–,–,–,–,–,"spatial- and long term memory, Morris Water Maze [5]: performed significantly better; spatial- and long term memory, Barnes Maze [6]: performed significantly better"
CN1CCN(c2ccc3c(c2)[C@H]2C[C@@H]3CCN2C(=O)OCc2ccccc2)CC1 [SAS-0132],–,–,–,–,–,"DHPG-mediated increase in LTD [7]: blocked; concentration at which cytotoxicity begins (neuroblastoma cells [8]): around 30 microM; toxicity in MTT assay (in words) (neuroblastoma cells [8]): not toxic at low doses; DKR-1051-induced calcium response (neuroblastoma cells [9]): concentration-dependent attenuation; intracellular Ca2+ concentration (neuroblastoma cells [9]; concentrations up to 30 μM): does not induce significant increases; brain levels of CD14 [10]: not statistically significant; brain levels of IL-1β [10]: significant reduction; brain levels of TNFα [10]: not statistically significant; spatial- and long term memory, Barnes Maze [6]: performed significantly better"
OCCN1CCN(CCCN2c3ccccc3C=Cc3ccccc32)CC1 [opipramol],–,–,–,–,–,affinity for σ2R (σ2R): appreciable affinity

# The next lines start with results.
pKi (sigma 2 receptor [1]),σ1 pKi ± SEM (sigma 1 receptor [4]),pKi (sigma 1 receptor [4]),σ2 pKi ± SEM (sigma 2 receptor [1]),Ki(σ1)/Ki(σ2) (sigma 2 receptor [1]),Compound,other results
6.35,5.68 ± 0.07,5.68,6.37 ± 0.07,5,C=CCOC(=O)N1CC[C@@H]2C[C@@H]1c1cc(N3CCN(C)CC3)ccc12 [Compound 37],–
6.13,–,5.45,–,5,Clc1cccc(CN2CC[C@@H]3C[C@@H]2c2cc(N4CCCCC4)ccc23)c1 [Compound 38],pKi (sigma 2 receptor [2]): 6.10; pKi (sigma 1 receptor [3]): 5.50
7.04,5.53 ± 0.09,5.53,–,32,Clc1cc(Cl)cc(CN2CC[C@@H]3C[C@@H]2c2cc(N4CCOCC4)ccc23)c1 [Compound 39],pKi (sigma 2 receptor [2]): 7.00; preference / selectivity for σ2R relative to σ1R (sigma 2 receptor [1]): 32 fold
5.90,5.34 ± 0.09,5.34,5.9 ± 0.1,4,Fc1ccccc1CN1CC[C@@H]2C[C@@H]1c1cc(N3CCOCC3)ccc12 [Compound 40],preference / selectivity for σ2R relative to σ1R (sigma 2 receptor [1]): 4 fold
7.37,6.81 ± 0.09,6.81,7.36 ± 0.08,4,CN1CC[C@@H]2C[C@@H]1c1cc(-c3ccc(C(F)(F)F)cc3)ccc12 [Compound 41],–
6.78,–,5.98,6.8 ± 0.1,6,FC(F)(F)c1ccc(-c2ccc3c(c2)[C@H]2C[C@H]3CCN2CCc2ccccc2)cc1 [Compound 42],pKi (sigma 1 receptor [3]): 6.00
6.88,6.41 ± 0.08,6.41,6.88 ± 0.07,3,Cc1cccc(-c2ccc3c(c2)[C@H]2C[C@H]3CCN2C)c1 [Compound 43],–
–,–,–,–,6,Cc1cccc(-c2ccc3c(c2)[C@H]2C[C@H]3CCN2Cc2ccc3c(c2)OCO3)c1 [Compound 44],pKi (sigma 2 receptor [2]): 6.08; Ki (sigma 1 receptor [3]): 4610 nM; pKi (sigma 1 receptor [3]): 5.34
